Assays:
[1] = test system: Bacillus subtilis and Saccharomyces cerevisiae; experiment: antimicrobial activity, paper disk agar diffusion bioassay; format: cell-based
[2] = test system: Streptomyces sp. isolates 275 and 124; experiment: Streptomycin susceptibility; format: cell-based, Streptomyces albovinaceous
Text: Streptomyces sp. isolates 124 and 275 were characterized by the methods developed by collaborators of the International Streptomyces Project for the identification of Streptomyces species (1, 7, 8, 10-14). Identification was made by using Nonomura's classification key (7) and Bergey's Manual of Determinative Bacteriology (1). The color of mature aerial mycelia was observed on OMA, potato dextrose agar, and Pridham and Gottlieb's basal agar with glucose (8). The colony color on the reverse side of the plate was observed on potato dextrose agar, OMA, and tyrosine-casein-nitrate agar. Color standards and color nomenclature were used to describe the colony color. The production of melanoid pigments was examined on peptone-iron agar, tyrosine agar, and tryptone-yeast extract broth. Carbon utilization by the organism was studied on Pridham and Gottlieb's basal agar with various carbon sources added (8).

dopamine β-hydroxylase = conditions: cited from earlier work
[3] = cited from earlier work
[4] = test system: Fusobacterium necrophorum; conditions: cited from earlier work

C[C@@H]1C[C@H](C)C[C@H](C)[C@@H](O)CC(=O)O[C@H]([C@@H]2CCC[C@H]2C(=O)O)C/C=C/C=C(/CN)[C@H](O)[C@@H](C)C1 [primary amine]
antimicrobial activity [1]: no antimicrobial activity

[H]/N=C(/N)N[C@H]1[C@H](O)[C@@H](O)[C@H](O[C@@H]2O[C@@H](C)[C@](O)(C=O)[C@H]2O[C@@H]2O[C@@H](CO)[C@H](O)[C@@H](O)[C@@H]2NC)[C@@H](N/C(N)=N\[H])[C@@H]1O [Streptomycin]
Streptomycin susceptibility ([2]; 10 μg/ml): not | Streptomycin susceptibility ([2]; 50 μg/ml): Inhibited

[C-]#[N+]C(C(=O)OCC(O)C(O)C(O)C(O)COC(=O)C([N+]#[C-])=C(C)C)=C(C)C (stereo not drawn) [A32390A]
inhibitor of dopamine β-hydroxylase (dopamine β-hydroxylase): inhibitor | antimicrobial [3]: antimicrobial compound

CC[C@H]1OC(=O)[C@H](C)[C@@H](O[C@H]2C[C@@](C)(OC)[C@@H](O)[C@H](C)O2)[C@H](C)[C@@H](O[C@@H]2O[C@H](C)C[C@H](N(C)C)[C@H]2O)[C@](C)(O)C[C@@H](C)C(=O)[C@H](C)[C@@H](O)[C@]1(C)O [erythromycin]
resistance of Fusobacterium necrophorum [4]: high levels of resistance
